The values that follow come from patent US9072703B2 (Ipsen Pharma S.A.S., priority 2008, dated 2015).

Non-standard residues stand in square brackets, D forms with d. Residues, ends and D or L forms follow the SMILES beside them. No end group written: not given here. *: point of attachment. Myristoyl = CCCCCCCCCCCCCC(=O)*; 12Ado = NCCCCCCCCCCCC(=O)O; Ac6c = NC1(C(=O)O)CCCCC1; Orn = NCCC[C@H](N)C(=O)O; Ac5c = NC1(C(=O)O)CCCC1; Aib = CC(C)(N)C(=O)O

Series [1] is described as follows: Human plasma half-life assay. The conditions noted are these: 37° C., LC-MS, read-out: Human Plasma T½ (converted). It counts as in vitro ADME. As for the experimental part:
(§1) B. Human and Rat Plasma Half-Life Assay
(§2) 50 μL was removed at various times, like at 0, 1, 2, 3, 4, 8, 24, 32, 48, 56, 72 hours, mixed with 5 μL formic acid and 150 μL acetonitrile in a microcentrifuge tube, vertexed, and centrifuged for 10 minutes at 10K rpm. The supernatant was transferred to an injection vial and analyzed by LC-MS. The LC-MS system consisted of an API4000 mass spectrometer with an ESI probe. Positive ion mode and full scan detection were used. HPLC separation was carried out on a Luna 3μ C8 (2), 2×30 mm column with a gradient from 90% A to 90% B in 10 minutes at a flow rate of 0.3 ml/min. Buffer A was 1% formic acid in water and buffer B was 1% formic acid acetonitrile.

Series [2] in a line: Rat plasma half-life assay. Type of series: in vitro ADME. Particulars: 37° C., LC-MS, read-out: Rat Plasma T½ (converted). Here is the method:
as §1, §2

On to “YAEGTFISDYSI[Aib]MDKIHQQDFVNWLLAQKGKKNDWKHNITQW-OH [Example 12, (Aib^13, Trp^43)hGIP(1-43)-OH]”, for which the half-life at 0.1 mg/ml in series [1] was 6.9 h; in series [2], 2.1 h.
In the same order, the values of `CC[C@H](C)[C@H](NC(=O)[C@H](CCCCN)NC(=O)[C@H](CC(=O)O)NC(=O)[C@H](CCSC)NC(=O)[C@H](C)NC(=O)[C@@H](NC(=O)C1(NC(=O)[C@H](Cc2ccc(O)cc2)NC(=O)[C@H](CC(=O)O)NC(=O)[C@H](CO)NC(=O)[C@@H](NC(=O)[C@H](Cc2ccccc2)NC(=O)[C@@H](NC(=O)CNC(=O)[C@H](CCC(=O)O)NC(=O)[C@H](C)NC(=O)[C@@H](N)Cc2ccc(O)cc2)[C@@H](C)O)[C@@H](C)CC)CCCC1)[C@@H](C)CC)C(=O)N[C@@H](Cc1c[nH]cn1)C(=O)N[C@@H](CCC(N)=O)C(=O)N[C@@H](CCC(N)=O)C(=O)N[C@@H](CC(=O)O)C(=O)N[C@@H](Cc1ccccc1)C(=O)N[C@H](C(=O)N[C@@H](CC(N)=O)C(=O)N[C@@H](Cc1c[nH]c2ccccc12)C(=O)N[C@@H](CC(C)C)C(=O)N[C@@H](CC(C)C)C(=O)N[C@@H](C)C(=O)N[C@@H](CCC(N)=O)C(=O)N[C@@H](CCCCN)C(N)=O)C(C)C` [Example 28, (A5c^11)hGIP(1-30)-NH2] (H-YAEGTFISDY[Ac5c]IAMDKIHQQDFVNWLLAQK-NH2; N-terminus assumed) are 6.6 h and 2.4 h.
In the same order, the values of `CC[C@H](C)[C@H](NC(=O)[C@H](CCCCN)NC(=O)[C@H](CC(=O)O)NC(=O)[C@H](CCSC)NC(=O)[C@H](C)NC(=O)[C@@H](NC(=O)C1(NC(=O)[C@H](Cc2ccc(O)cc2)NC(=O)[C@H](CC(=O)O)NC(=O)[C@H](CO)NC(=O)[C@@H](NC(=O)[C@H](Cc2ccccc2)NC(=O)[C@@H](NC(=O)CNC(=O)[C@H](CCC(=O)O)NC(=O)[C@H](C)NC(=O)[C@@H](N)Cc2ccc(O)cc2)[C@@H](C)O)[C@@H](C)CC)CCCC1)[C@@H](C)CC)C(=O)N[C@@H](Cc1c[nH]cn1)C(=O)N[C@@H](CCC(N)=O)C(=O)N[C@@H](CCC(N)=O)C(=O)N[C@@H](CC(=O)O)C(=O)N[C@@H](Cc1ccccc1)C(=O)N[C@H](C(=O)N[C@@H](CC(N)=O)C(=O)N[C@@H](Cc1c[nH]c2ccccc12)C(=O)N[C@@H](CC(C)C)C(=O)N[C@@H](CC(C)C)C(=O)N[C@@H](C)C(=O)N[C@@H](CCC(N)=O)C(=O)N[C@@H](CCCCN)C(=O)N[C@@H](Cc1c[nH]cn1)C(N)=O)C(C)C` [Example 29, (A5c^11, His^31)hGIP(1-31)-NH2] (H-YAEGTFISDY[Ac5c]IAMDKIHQQDFVNWLLAQKH-NH2; N-terminus assumed) are 7.2 h and 7.5 h.
As to `CCCCCCCCCCCCCCCC(=O)NCCC[C@H](NC(=O)[C@H](CCCCN)NC(=O)CNC(=O)[C@H](CCCCN)NC(=O)[C@H](CCC(N)=O)NC(=O)[C@H](C)NC(=O)[C@H](CC(C)C)NC(=O)[C@H](CC(C)C)NC(=O)[C@H](Cc1c[nH]c2ccccc12)NC(=O)[C@H](CC(N)=O)NC(=O)[C@@H](NC(=O)[C@H](Cc1ccccc1)NC(=O)[C@H](CC(=O)O)NC(=O)[C@H](CCC(N)=O)NC(=O)[C@H](CCC(N)=O)NC(=O)[C@H](Cc1c[nH]cn1)NC(=O)[C@@H](NC(=O)[C@H](CCCCN)NC(=O)[C@H](CC(=O)O)NC(=O)[C@H](CCSC)NC(=O)[C@H](C)NC(=O)[C@@H](NC(=O)C1(NC(=O)[C@H](Cc2ccc(O)cc2)NC(=O)[C@H](CC(=O)O)NC(=O)[C@H](CO)NC(=O)[C@@H](NC(=O)[C@H](Cc2ccccc2)NC(=O)[C@@H](NC(=O)CNC(=O)[C@H](CCC(=O)O)NC(=O)[C@H](C)NC(=O)[C@@H](N)Cc2ccc(O)cc2)[C@@H](C)O)[C@@H](C)CC)CCCC1)[C@@H](C)CC)[C@@H](C)CC)C(C)C)C(=O)N[C@@H](CC(N)=O)C(=O)N[C@@H](CC(=O)O)C(=O)N[C@@H](Cc1c[nH]c2ccccc12)C(=O)N[C@@H](CCCCN)C(=O)N[C@@H](Cc1c[nH]cn1)C(=O)N[C@@H](CC(N)=O)C(=O)N[C@H](C(=O)N[C@H](C(=O)N[C@@H](CCC(N)=O)C(=O)N[C@@H](Cc1c[nH]cn1)C(=O)O)[C@@H](C)O)[C@@H](C)CC` [Example 42, [A5c^11, Orn^33(N—C(O)—(CH2)14—CH3), His^43]hGIP(1-43)-OH], the half-life at 0.1 mg/ml was 6.3 h in series [1] and 28.3 h in series [2].
In the same order, the values of `CCCCCCCCCCCC(=O)NCCC[C@H](NC(=O)[C@H](CCCCN)NC(=O)CNC(=O)[C@H](CCCCN)NC(=O)[C@H](CCC(N)=O)NC(=O)[C@H](C)NC(=O)[C@H](CC(C)C)NC(=O)[C@H](CC(C)C)NC(=O)[C@H](Cc1c[nH]c2ccccc12)NC(=O)[C@H](CC(N)=O)NC(=O)[C@@H](NC(=O)[C@H](Cc1ccccc1)NC(=O)[C@H](CC(=O)O)NC(=O)[C@H](CCC(N)=O)NC(=O)[C@H](CCC(N)=O)NC(=O)[C@H](Cc1c[nH]cn1)NC(=O)[C@@H](NC(=O)[C@H](CCCCN)NC(=O)[C@H](CC(=O)O)NC(=O)[C@H](CCSC)NC(=O)[C@H](C)NC(=O)[C@@H](NC(=O)C1(NC(=O)[C@H](Cc2ccc(O)cc2)NC(=O)[C@H](CC(=O)O)NC(=O)[C@H](CO)NC(=O)[C@@H](NC(=O)[C@H](Cc2ccccc2)NC(=O)[C@@H](NC(=O)CNC(=O)[C@H](CCC(=O)O)NC(=O)[C@H](C)NC(=O)[C@@H](N)Cc2ccc(O)cc2)[C@@H](C)O)[C@@H](C)CC)CCCC1)[C@@H](C)CC)[C@@H](C)CC)C(C)C)C(=O)N[C@@H](CC(N)=O)C(=O)N[C@@H](CC(=O)O)C(=O)N[C@@H](Cc1c[nH]c2ccccc12)C(=O)N[C@@H](CCCCN)C(=O)N[C@@H](Cc1c[nH]cn1)C(=O)N[C@@H](CC(N)=O)C(=O)N[C@H](C(=O)N[C@H](C(=O)N[C@@H](CCC(N)=O)C(=O)N[C@@H](Cc1c[nH]cn1)C(=O)O)[C@@H](C)O)[C@@H](C)CC` [Example 35, [A5c^11, Orn^33(N—C(O)—(CH2)10—CH3), His^43]hGIP(1-43)-OH] are 9.5 h and 17 h.
For the compound `CCCCCCCCCCCC(=O)NCCCC[C@H](NC(=O)[C@H](CCC(N)=O)NC(=O)[C@@H](NC(=O)[C@@H](NC(=O)[C@H](CC(N)=O)NC(=O)[C@H](Cc1c[nH]cn1)NC(=O)[C@H](CCCCN)NC(=O)[C@H](Cc1c[nH]c2ccccc12)NC(=O)[C@H](CC(=O)O)NC(=O)[C@H](CC(N)=O)NC(=O)[C@H](CCCCN)NC(=O)[C@H](CCCCN)NC(=O)CNC(=O)[C@H](CCCCN)NC(=O)[C@H](CCC(N)=O)NC(=O)[C@H](C)NC(=O)[C@H](CC(C)C)NC(=O)[C@H](CC(C)C)NC(=O)[C@H](Cc1c[nH]c2ccccc12)NC(=O)[C@H](CC(N)=O)NC(=O)[C@@H](NC(=O)[C@H](Cc1ccccc1)NC(=O)[C@H](CC(=O)O)NC(=O)[C@H](CCC(N)=O)NC(=O)[C@H](CCC(N)=O)NC(=O)[C@H](Cc1c[nH]cn1)NC(=O)[C@@H](NC(=O)[C@H](CCCCN)NC(=O)[C@H](CC(=O)O)NC(=O)[C@H](CCSC)NC(=O)[C@H](C)NC(=O)[C@@H](NC(=O)C1(NC(=O)[C@H](Cc2ccc(O)cc2)NC(=O)[C@H](CC(=O)O)NC(=O)[C@H](CO)NC(=O)[C@@H](NC(=O)[C@H](Cc2ccccc2)NC(=O)[C@@H](NC(=O)CNC(=O)[C@H](CCC(=O)O)NC(=O)[C@H](C)NC(=O)[C@@H](N)Cc2ccc(O)cc2)[C@@H](C)O)[C@@H](C)CC)CCCC1)[C@@H](C)CC)[C@@H](C)CC)C(C)C)[C@@H](C)CC)[C@@H](C)O)C(=O)O` [Example 36, [A5c^11, Lys^43(N—C(O)—(CH2)10—CH3)]hGIP(1-43)-OH], the half-life at 0.1 mg/ml in series [1] was 14.8 h; in series [2] it was 53.3 h.
Turning to `CC[C@H](C)[C@H](NC(=O)[C@H](CCCCN)NC(=O)[C@H](CC(=O)O)NC(=O)C1(NC(=O)[C@H](C)NC(=O)[C@@H](NC(=O)C2(NC(=O)[C@H](Cc3ccc(O)cc3)NC(=O)[C@H](CC(=O)O)NC(=O)[C@H](CO)NC(=O)[C@@H](NC(=O)[C@H](Cc3ccccc3)NC(=O)[C@@H](NC(=O)CNC(=O)[C@H](CCC(=O)O)NC(=O)[C@H](C)NC(=O)[C@@H](N)Cc3ccc(O)cc3)[C@@H](C)O)[C@@H](C)CC)CCCC2)[C@@H](C)CC)CCCC1)C(=O)N[C@@H](Cc1c[nH]cn1)C(=O)N[C@@H](CCC(N)=O)C(=O)N[C@@H](CCC(N)=O)C(=O)N[C@@H](CC(=O)O)C(=O)N[C@@H](Cc1ccccc1)C(=O)N[C@H](C(=O)N[C@@H](CC(N)=O)C(=O)N[C@@H](Cc1c[nH]c2ccccc12)C(=O)N[C@@H](CC(C)C)C(=O)N[C@@H](CC(C)C)C(=O)N[C@@H](C)C(=O)N[C@@H](CCC(N)=O)C(=O)N[C@@H](CCCCN)C(N)=O)C(C)C` [Example 30, (A5c^11, 14)hGIP(1-30)-NH2] (H-YAEGTFISDY[Ac5c]IA[Ac5c]DKIHQQDFVNWLLAQK-NH2; N-terminus assumed), the figures for the half-life at 0.1 mg/ml in series [1] and in series [2] were 6.2 h and 13.6 h, respectively.
The corresponding values for “YAEGTFISDY[Ac5c]IAMDKIHQQDFVNWLLAQKGCKNDWKHNI[Ac5c]Q-NH2 [Example 31, (A5c^11, 41, Cys^32)hGIP(1-42)-NH2]” are 26.6 h and 16.3 h.
In the same order, the values of “YAEGTFISDY[Ac5c]IAMDKIHQQDFVNWLLAQKGKKNDWKHNITQ[12Ado]-OH [Example 13, (A5c^11, Ado^43)hGIP(1-43)-OH]” are 13.1 h and 18.8 h.
The corresponding values for “H-YAEGTF[Ac6c]SDYSIAMDKIHQQDFVNWLLAQKGKKN[Orn](Myristoyl)WKHNITQ-OH [Example 18, [A6c^7, Orn^35(N—C(O)—(CH2)12—CH3)]hGIP(1-42)-OH]” are 7.3 h and 16.7 h.
Take “YAEGTFISDY[Ac5c]IAMDKIHQQDFVNWLLAQKGKKNDWKHNI[Ac5c]QC-NH2 [Example 33, (A5c^11, 41, Cys^43)hGIP(1-43)-NH2]”: the half-life at 0.1 mg/ml in series [1] was 15.8 h; in series [2] it was 6.5 h.
